Reference: ChEMBL document CHEMBL1201862, “PubChem BioAssay data set” (2004)
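The compound was tested at five concentrations on cells cultured in 96-well plates, with a 48-hour exposure period. GI50 is the concentration that inhibits growth by half.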 The source made the active and inactive calls. Rule as the data show it: active = GI50 up to about 1.1 µM and inactive = higher.

Columns and labels:
Experiment in all cases: NCI anticancer screen, dose series, 48 h
HCC 2998 = test system: HCC 2998
Hs-578T = test system: Hs-578T
SW-620 = test system: SW-620
OVCAR-4 = test system: OVCAR-4
SNB-19 = test system: SNB-19
OVCAR-5 = test system: OVCAR-5
K562 = test system: K562
ACHN = test system: ACHN
SK-MEL-2 = test system: SK-MEL-2
CAKI-1 = test system: CAKI-1
UO-31 = test system: UO-31
HCT-15 = test system: HCT-15
HL-60 = test system: HL-60
MDA-MB-435 = test system: MDA-MB-435
RPMI-8226 = test system: RPMI-8226
M14 = test system: M14
HOP-92 = test system: HOP-92
HCT-116 = test system: HCT-116
OVCAR-8 = test system: OVCAR-8
NCI-H23 = test system: NCI-H23

Structure (SMILES)	GI50 (HCC 2998)	GI50 (Hs-578T)	GI50 (SW-620)	GI50 (OVCAR-4)	GI50 (SNB-19)	GI50 (OVCAR-5)	GI50 (K562)	GI50 (ACHN)	GI50 (SK-MEL-2)	GI50 (CAKI-1)	GI50 (UO-31)	GI50 (HCT-15) [µM]	GI50 (HL-60)	GI50 (MDA-MB-435)	GI50 (RPMI-8226)	GI50 (M14)	GI50 (HOP-92)	GI50 (HCT-116)	GI50 (OVCAR-8)	GI50 (NCI-H23)
CC(N1CCOCC1)C(O)(c1ccccc1)c1ccccn1 (stereo not given)	0.0192 µM (active)	> 100 µM (inactive)	> 100 µM (inactive)	> 100 µM (inactive)	> 100 µM (inactive)	> 100 µM (inactive)	> 100 µM (inactive)	52.8 µM (inactive)	> 100 µM (inactive)	> 100 µM (inactive)	> 100 µM (inactive)	> 100	44.9 µM (inactive)	> 100 µM (inactive)	> 100 µM (inactive)	> 100 µM (inactive)	> 100 µM (inactive)	> 100 µM (inactive)	> 100 µM (inactive)	> 100 µM (inactive)
NC(=S)Nc1ccc2c(c1)oc1ccccc12	> 100 µM (inactive)	> 100 µM (inactive)	> 100 µM (inactive)	> 100 µM (inactive)	> 100 µM (inactive)	> 100 µM (inactive)	> 100 µM (inactive)	> 100 µM (inactive)	> 100 µM (inactive)	> 100 µM (inactive)	> 28.4 µM (inactive)	55.1	7.82 µM (inactive)	> 100 µM (inactive)	11.7 µM (inactive)	> 100 µM (inactive)	> 100 µM (inactive)	> 100 µM (inactive)	> 100 µM (inactive)	> 83.6 µM (inactive)
CC1=C(Cl)C[C@@H](/C(C)=C\Cl)O[C@@]1(O)C(Br)Br	33.3 µM (inactive)	45.5 µM (inactive)	37.3 µM (inactive)	43 µM (inactive)	> 100 µM (inactive)	19.2 µM (inactive)	17.3 µM (inactive)	30.5 µM (inactive)	28.4 µM (inactive)	18.5 µM (inactive)	25.3 µM (inactive)	16.8	6.92 µM (inactive)	31.6 µM (inactive)	18.2 µM (inactive)	22.5 µM (inactive)	25.2 µM (inactive)	30.4 µM (inactive)	32.1 µM (inactive)	41.9 µM (inactive)
COc1ccc(C(O)CC(O)(C(F)(F)F)C(F)(F)F)cc1 (stereo not given)	38 µM (inactive)	16.3 µM (inactive)	33 µM (inactive)	32.6 µM (inactive)	24.9 µM (inactive)	27.5 µM (inactive)	25.6 µM (inactive)	29.6 µM (inactive)	17.6 µM (inactive)	15 µM (inactive)	39.8 µM (inactive)	34.8	18.7 µM (inactive)	31.9 µM (inactive)	14.4 µM (inactive)	32.8 µM (inactive)	15.8 µM (inactive)	16.6 µM (inactive)	23 µM (inactive)	19.5 µM (inactive)
S=C1SCN(Cc2ccco2)CN1c1ccc(Br)cc1	14.5 µM (inactive)	24.8 µM (inactive)	19.5 µM (inactive)	13.9 µM (inactive)	21.8 µM (inactive)	16.8 µM (inactive)	2.45 µM (inactive)	16 µM (inactive)	13.6 µM (inactive)	14.8 µM (inactive)	22.9 µM (inactive)	8.69	13.2 µM (inactive)	14.6 µM (inactive)	15.4 µM (inactive)	13.8 µM (inactive)	20 µM (inactive)	12.2 µM (inactive)	23.3 µM (inactive)	14.7 µM (inactive)
Cc1cc(C)nc(NS(=O)(=O)c2ccc(NC(=O)c3ccc4nc5ccccc5c(Nc5ccc(S(=O)(=O)N=C(N)N)cc5)c4c3)cc2)n1	> 100 µM (inactive)	> 100 µM (inactive)	> 100 µM (inactive)	> 100 µM (inactive)	> 100 µM (inactive)	> 100 µM (inactive)	46.6 µM (inactive)	> 100 µM (inactive)	> 100 µM (inactive)	> 100 µM (inactive)	> 100 µM (inactive)	> 100	> 100 µM (inactive)	> 100 µM (inactive)	> 100 µM (inactive)	> 100 µM (inactive)	32.4 µM (inactive)	> 100 µM (inactive)	> 100 µM (inactive)	> 100 µM (inactive)
COc1c(C(CC(C)C)OC(C)=O)ccc2c1C(=O)OCc1cc(C)cc(O)c1O2 (stereo not given)	12.8 µM (inactive)	22.1 µM (inactive)	17.5 µM (inactive)	13.9 µM (inactive)	14.8 µM (inactive)	15.1 µM (inactive)	> 100 µM (inactive)	10.5 µM (inactive)	19.1 µM (inactive)	16.1 µM (inactive)	6.95 µM (inactive)	10.1	> 100 µM (inactive)	13.7 µM (inactive)	> 100 µM (inactive)	16.7 µM (inactive)	11.9 µM (inactive)	12.6 µM (inactive)	16.7 µM (inactive)	10.3 µM (inactive)
O=C(NC(=S)Nc1ccc2c(c1)Sc1ccccc1O2)c1ccccc1	7.46 µM (inactive)	39.6 µM (inactive)	32.1 µM (inactive)	19.8 µM (inactive)	34 µM (inactive)	77.3 µM (inactive)	6.27 µM (inactive)	31.3 µM (inactive)	14.1 µM (inactive)	47.8 µM (inactive)	> 100 µM (inactive)	14	13.5 µM (inactive)	3.55 µM (inactive)	51.3 µM (inactive)	43.2 µM (inactive)	24.2 µM (inactive)	41 µM (inactive)	34.4 µM (inactive)	30.8 µM (inactive)
CN1CSC(=S)N(c2c3ccccc3nc3ccc(Br)cc23)C1	2.79 µM (inactive)	17.8 µM (inactive)	3.89 µM (inactive)	7.11 µM (inactive)	12.5 µM (inactive)	13.7 µM (inactive)	2.32 µM (inactive)	6.59 µM (inactive)	13 µM (inactive)	5.41 µM (inactive)	9.06 µM (inactive)	6.4	11.1 µM (inactive)	8.67 µM (inactive)	7.71 µM (inactive)	13.1 µM (inactive)	16.3 µM (inactive)	4.28 µM (inactive)	7.93 µM (inactive)	10 µM (inactive)
COC(=O)C1=C(O)C(C(=O)OC)[C@]2(O)[C@H](C(=O)OC)[C@H]1C[C@@H](c1ccccc1OC)[C@H]2C(=O)OC (stereo not given in full)	10.5 µM (inactive)	2.49 µM (inactive)	4.25 µM (inactive)	4.95 µM (inactive)	5.24 µM (inactive)	6.08 µM (inactive)	4.38 µM (inactive)	6.25 µM (inactive)	6.03 µM (inactive)	3.99 µM (inactive)	10 µM (inactive)	3.31	3.29 µM (inactive)	2.71 µM (inactive)	2.17 µM (inactive)	2.88 µM (inactive)	2.34 µM (inactive)	3.65 µM (inactive)	2.86 µM (inactive)	3.52 µM (inactive)
